From ChEMBL document CHEMBL1201862, “PubChem BioAssay data set” (2004)
Active and inactive are the calls of the source.

Columns and labels:
Assay type in all cases: functional
[1] = SAR analysis of small molecule activators of Apaf-1 using a LZ-Caspase-9/Caspase-3 Fluorescent Selectivity assay - Set 2.; conditions: read-out: EC50_Mean
[2] = target: Apoptotic protease-activating factor 1 (Homo sapiens, UniProt O14727); assay: SAR analysis of small molecule Activators of Apaf-1 in a Fluorescent assay - set 2.; conditions: read-out: EC50_Mean
[3] = target: Sphingosine 1-phosphate receptor 2 (Homo sapiens, UniProt O95136); assay: Late-stage fluorescence-based dose-response cell-based counterscreen assay to identify agonists of the Sphingosine 1-Phosphate Receptor 3 (S1P3): Sphingosine 1-Phosphate Receptor 2 (S1P2) agonist assay.
Sphingosine 1-phosphate receptor 2, sequence (O95136 whole entry): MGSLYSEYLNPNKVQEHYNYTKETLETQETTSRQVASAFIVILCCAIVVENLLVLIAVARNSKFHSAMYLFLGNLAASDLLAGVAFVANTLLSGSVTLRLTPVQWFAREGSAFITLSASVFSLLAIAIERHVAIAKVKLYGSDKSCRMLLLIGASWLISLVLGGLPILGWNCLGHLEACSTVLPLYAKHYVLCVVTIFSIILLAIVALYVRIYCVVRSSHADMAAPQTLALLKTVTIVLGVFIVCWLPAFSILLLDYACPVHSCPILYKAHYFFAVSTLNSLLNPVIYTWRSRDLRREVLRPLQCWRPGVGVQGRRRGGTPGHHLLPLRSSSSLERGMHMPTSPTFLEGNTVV

[4] = target: Sphingosine 1-phosphate receptor 4 (Homo sapiens, UniProt O95977); assay: Late-stage fluorescence-based dose-response cell-based counterscreen assay to identify agonists of the Sphingosine 1-Phosphate Receptor 3 (S1P3): Sphingosine 1-Phosphate Receptor 4 (S1P4) agonist assay.
Sphingosine 1-phosphate receptor 4, sequence (O95977 whole entry): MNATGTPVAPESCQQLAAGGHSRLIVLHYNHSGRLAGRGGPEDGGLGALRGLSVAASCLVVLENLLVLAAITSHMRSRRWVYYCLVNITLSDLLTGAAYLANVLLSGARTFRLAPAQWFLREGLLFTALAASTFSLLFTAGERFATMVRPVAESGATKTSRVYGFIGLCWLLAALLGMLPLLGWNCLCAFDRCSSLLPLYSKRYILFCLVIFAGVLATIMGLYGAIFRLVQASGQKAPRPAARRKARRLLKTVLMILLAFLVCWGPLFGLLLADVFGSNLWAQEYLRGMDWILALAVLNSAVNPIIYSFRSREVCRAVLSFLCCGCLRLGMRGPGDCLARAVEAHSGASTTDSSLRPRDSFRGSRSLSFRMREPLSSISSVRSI

[5] = target: Casein kinase II subunit alpha (Homo sapiens, UniProt P68400)
[6] = target: Serine/threonine-protein kinase Nek4 (Homo sapiens, UniProt P51957)
Serine/threonine-protein kinase Nek4, sequence (P51957 whole entry): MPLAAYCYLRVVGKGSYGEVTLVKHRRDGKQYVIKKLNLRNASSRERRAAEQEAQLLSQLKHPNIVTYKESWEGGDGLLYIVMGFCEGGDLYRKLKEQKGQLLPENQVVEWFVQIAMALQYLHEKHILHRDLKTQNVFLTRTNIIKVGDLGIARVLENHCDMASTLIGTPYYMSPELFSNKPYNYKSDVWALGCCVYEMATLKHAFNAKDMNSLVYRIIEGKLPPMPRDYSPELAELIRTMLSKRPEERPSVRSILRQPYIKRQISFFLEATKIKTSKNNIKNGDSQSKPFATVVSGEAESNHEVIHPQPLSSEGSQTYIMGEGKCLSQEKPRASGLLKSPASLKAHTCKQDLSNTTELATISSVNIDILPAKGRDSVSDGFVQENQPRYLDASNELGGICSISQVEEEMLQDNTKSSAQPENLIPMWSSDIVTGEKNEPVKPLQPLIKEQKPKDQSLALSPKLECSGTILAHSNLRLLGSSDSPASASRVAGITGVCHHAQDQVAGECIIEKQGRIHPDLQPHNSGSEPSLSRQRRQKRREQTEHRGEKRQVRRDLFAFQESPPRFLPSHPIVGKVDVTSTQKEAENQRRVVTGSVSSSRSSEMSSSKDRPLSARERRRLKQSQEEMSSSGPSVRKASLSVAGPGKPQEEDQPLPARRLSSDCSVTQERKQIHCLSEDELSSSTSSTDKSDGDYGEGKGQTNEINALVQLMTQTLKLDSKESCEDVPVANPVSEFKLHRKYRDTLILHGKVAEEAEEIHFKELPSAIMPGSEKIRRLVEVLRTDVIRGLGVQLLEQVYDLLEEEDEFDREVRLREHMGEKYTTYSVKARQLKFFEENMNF

[7] = target: Interleukin-1 receptor-associated kinase 4 (Homo sapiens, UniProt Q9NWZ3)
Interleukin-1 receptor-associated kinase 4, sequence (Q9NWZ3 whole entry): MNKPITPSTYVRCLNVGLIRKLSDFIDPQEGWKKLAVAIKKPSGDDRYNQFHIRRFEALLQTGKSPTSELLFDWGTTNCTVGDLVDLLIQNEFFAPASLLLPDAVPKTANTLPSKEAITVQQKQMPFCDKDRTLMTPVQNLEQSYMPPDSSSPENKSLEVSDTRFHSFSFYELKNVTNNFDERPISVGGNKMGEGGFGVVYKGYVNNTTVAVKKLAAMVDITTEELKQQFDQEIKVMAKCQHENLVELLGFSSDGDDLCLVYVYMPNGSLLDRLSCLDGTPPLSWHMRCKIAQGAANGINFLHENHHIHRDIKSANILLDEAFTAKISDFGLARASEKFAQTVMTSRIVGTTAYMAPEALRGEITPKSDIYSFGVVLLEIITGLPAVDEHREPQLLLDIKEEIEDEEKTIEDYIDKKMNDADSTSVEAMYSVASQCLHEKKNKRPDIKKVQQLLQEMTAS

[8] = target: Glycogen synthase kinase-3 beta (Homo sapiens, UniProt P49841);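 further: value comes from a broad kinome profiling panel, with GSK3B as the panel member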
[9] = target: Dual specificity protein kinase CLK4 (Homo sapiens, UniProt Q9HAZ1)
Dual specificity protein kinase CLK4, sequence (Q9HAZ1 whole entry): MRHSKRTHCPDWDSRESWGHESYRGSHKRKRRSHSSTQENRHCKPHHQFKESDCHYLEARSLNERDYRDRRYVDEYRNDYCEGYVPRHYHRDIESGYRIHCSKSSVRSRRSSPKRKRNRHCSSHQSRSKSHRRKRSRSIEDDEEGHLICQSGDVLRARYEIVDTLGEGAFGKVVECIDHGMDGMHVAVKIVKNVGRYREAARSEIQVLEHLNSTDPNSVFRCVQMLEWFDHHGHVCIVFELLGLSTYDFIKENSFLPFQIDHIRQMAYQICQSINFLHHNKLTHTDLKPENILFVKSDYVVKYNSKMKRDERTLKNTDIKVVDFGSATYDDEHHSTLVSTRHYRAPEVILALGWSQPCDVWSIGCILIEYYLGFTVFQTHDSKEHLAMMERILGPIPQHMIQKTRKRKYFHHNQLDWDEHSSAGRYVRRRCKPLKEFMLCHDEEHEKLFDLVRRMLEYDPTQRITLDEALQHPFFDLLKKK

[10] = target: Dual specificity protein kinase CLK2 (Homo sapiens, UniProt P49760)
Dual specificity protein kinase CLK2, sequence (P49760 whole entry): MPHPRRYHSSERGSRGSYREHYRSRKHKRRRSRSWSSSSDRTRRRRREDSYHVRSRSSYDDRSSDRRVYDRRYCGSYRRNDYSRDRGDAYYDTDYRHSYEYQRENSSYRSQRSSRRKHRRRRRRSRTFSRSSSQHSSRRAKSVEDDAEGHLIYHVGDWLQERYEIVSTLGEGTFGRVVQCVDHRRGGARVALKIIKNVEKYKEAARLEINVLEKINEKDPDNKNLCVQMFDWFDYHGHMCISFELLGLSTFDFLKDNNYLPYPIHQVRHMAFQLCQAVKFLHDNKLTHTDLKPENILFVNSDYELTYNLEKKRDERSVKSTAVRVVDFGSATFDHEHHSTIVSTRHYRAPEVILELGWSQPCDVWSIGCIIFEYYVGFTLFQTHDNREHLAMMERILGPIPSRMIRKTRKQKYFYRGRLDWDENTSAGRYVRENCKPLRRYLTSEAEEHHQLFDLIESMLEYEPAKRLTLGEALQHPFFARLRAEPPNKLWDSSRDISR

[11] = target: Dual specificity tyrosine-phosphorylation-regulated kinase 1A (Homo sapiens, UniProt Q13627);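 further: measured against DYRK1A as one member of a broad kinome profiling panel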
[12] = target: T1, High affinity choline transporter 1 (Homo sapiens, UniProt Q9GZV3); assay: CHT inhibitors, dose response, cell-based, 5-point CRC, membrane potential dye (AID 504840)
T1 sequence (Q9GZV3 whole entry): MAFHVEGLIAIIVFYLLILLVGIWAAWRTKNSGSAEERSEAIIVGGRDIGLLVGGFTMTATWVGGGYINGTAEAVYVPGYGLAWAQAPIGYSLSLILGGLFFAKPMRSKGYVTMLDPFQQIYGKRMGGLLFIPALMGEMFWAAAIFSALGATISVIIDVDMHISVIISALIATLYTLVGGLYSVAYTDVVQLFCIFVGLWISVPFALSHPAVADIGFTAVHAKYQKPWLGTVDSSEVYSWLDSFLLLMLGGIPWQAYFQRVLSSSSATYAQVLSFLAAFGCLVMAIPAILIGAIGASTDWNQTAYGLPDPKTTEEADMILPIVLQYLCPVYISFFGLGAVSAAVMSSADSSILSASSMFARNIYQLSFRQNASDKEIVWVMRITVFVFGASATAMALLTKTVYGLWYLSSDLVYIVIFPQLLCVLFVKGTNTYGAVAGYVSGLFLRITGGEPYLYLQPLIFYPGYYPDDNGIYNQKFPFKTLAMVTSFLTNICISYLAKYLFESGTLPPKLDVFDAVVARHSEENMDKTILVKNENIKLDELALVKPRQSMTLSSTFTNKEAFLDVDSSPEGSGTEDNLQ

[13] = target: T1, High affinity choline transporter 1; assay: CHT inhibitors, dose response, cell-based, 10-point CRC, membrane potential dye (AID 588401);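 further: membrane potential dye fluorescence of choline-evoked depolarization via CHT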
[14] = target: Ribosomal protein S6 kinase alpha-3 (Homo sapiens, UniProt P51812);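 further: measured within a kinome-wide profiling panel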
[15] = target: Serine/threonine-protein kinase D2 (Homo sapiens, UniProt Q9BZL6);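 further: measured against PRKD2 as one member of a kinome-wide kinase profiling panel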
Serine/threonine-protein kinase D2, sequence (Q9BZL6 whole entry): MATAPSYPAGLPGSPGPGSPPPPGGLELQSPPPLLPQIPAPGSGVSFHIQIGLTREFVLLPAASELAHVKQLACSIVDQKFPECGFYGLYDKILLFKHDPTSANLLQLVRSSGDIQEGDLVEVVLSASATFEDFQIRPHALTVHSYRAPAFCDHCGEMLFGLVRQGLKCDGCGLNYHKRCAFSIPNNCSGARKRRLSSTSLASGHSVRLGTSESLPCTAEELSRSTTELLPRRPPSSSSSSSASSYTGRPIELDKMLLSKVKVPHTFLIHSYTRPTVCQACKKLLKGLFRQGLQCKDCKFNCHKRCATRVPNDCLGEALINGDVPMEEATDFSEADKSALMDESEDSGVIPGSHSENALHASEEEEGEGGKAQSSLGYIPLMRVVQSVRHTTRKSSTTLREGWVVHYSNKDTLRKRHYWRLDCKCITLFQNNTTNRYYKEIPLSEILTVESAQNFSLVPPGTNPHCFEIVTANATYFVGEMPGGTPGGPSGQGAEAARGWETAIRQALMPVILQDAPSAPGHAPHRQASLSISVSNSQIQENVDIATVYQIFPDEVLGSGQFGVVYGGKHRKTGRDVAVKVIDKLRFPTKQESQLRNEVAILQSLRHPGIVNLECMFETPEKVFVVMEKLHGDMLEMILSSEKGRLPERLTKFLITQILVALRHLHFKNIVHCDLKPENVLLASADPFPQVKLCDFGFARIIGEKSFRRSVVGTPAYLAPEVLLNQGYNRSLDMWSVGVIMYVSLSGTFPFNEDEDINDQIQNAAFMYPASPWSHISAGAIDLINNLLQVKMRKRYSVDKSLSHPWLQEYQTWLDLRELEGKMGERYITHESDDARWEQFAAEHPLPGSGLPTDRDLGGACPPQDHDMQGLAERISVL

[16] = target: Serine/threonine-protein kinase D3 (Homo sapiens, UniProt O94806);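 further: determined within a kinase panel screen, with PRKCN as the panel member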
[17] = target: Rho-associated protein kinase 1 (Homo sapiens, UniProt Q13464);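 further: measured within a broad kinome-wide panel profiling many kinases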
[18] = target: Macrophage colony-stimulating factor 1 receptor (Homo sapiens, UniProt P07333);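 further: value comes from the Navigating the Kinome screening panel, CSF1R member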
Macrophage colony-stimulating factor 1 receptor, sequence (P07333 whole entry): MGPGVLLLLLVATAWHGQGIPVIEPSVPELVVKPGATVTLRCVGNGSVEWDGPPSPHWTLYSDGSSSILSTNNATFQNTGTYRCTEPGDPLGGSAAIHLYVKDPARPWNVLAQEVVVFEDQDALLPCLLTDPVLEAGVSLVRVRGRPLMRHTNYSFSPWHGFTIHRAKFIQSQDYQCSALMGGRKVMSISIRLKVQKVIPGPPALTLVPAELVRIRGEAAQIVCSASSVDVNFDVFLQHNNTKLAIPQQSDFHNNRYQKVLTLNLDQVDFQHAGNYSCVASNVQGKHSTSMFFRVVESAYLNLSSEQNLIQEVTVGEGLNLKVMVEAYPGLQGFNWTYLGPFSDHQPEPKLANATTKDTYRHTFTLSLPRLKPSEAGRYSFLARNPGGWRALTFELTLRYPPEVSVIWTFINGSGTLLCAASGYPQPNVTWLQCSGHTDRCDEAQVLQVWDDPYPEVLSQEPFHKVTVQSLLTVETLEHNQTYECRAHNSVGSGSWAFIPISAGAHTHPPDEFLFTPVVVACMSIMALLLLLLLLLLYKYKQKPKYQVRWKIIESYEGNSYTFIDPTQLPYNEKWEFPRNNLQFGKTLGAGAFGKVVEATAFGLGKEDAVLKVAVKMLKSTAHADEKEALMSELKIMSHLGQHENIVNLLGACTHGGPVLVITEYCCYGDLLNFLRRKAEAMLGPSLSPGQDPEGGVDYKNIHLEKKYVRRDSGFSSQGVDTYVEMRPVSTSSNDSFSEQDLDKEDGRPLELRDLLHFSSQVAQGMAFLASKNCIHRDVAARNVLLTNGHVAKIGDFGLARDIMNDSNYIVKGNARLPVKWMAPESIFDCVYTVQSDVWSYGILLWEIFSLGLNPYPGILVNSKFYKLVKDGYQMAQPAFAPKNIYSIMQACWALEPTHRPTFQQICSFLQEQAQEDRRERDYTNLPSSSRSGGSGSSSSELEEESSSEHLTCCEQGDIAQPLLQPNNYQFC

Cc1nn(CC(C)C(=O)O)c(C)c1C (centres undefined)
EC50 [1]: > 100 µM (inactive) | EC50 [2]: 63.6 µM (active)

O=C(c1coc(C2CC2)n1)N(C1CCCCC1)C1CCCCC1
EC50 [3]: > 50 µM (inactive) | EC50 [4]: > 50 µM (inactive)

C(=Cc1cncc(OCCc2c[nH]c3ccccc23)c1)c1ccncc1
Ki [5]: 3.16 µM (active) | Ki [6]: 6.31 µM (active) | Ki [7]: > 10 µM (inactive) | Ki [8]: 5.01 µM (active) | Ki [9]: 1 µM (active)

CCc1cccc2c1n(CC)c(=N)n2CC(=O)c1ccc(Cl)cc1
Ki [10]: 1.58 µM (active) | Ki [9]: 2.51 µM (active) | Ki [11]: 2.51 µM (active)

Nc1ncnc2c1ncn2C1OC(C(=O)NC2CC2)C(O)C1O (centres undefined)
IC50 [12]: 24.1 pM (inconclusive) | IC50 [13]: 0.00447 µM (active)

CCNC(=O)c1[nH]nc(-c2cc(Cl)c(O)cc2O)c1-c1ccc(OC)cc1
Ki [14]: 3.16 µM (active) | Ki [15]: 1.58 µM (active) | Ki [16]: 1.58 µM (active) | Ki [17]: 3.98 µM (active) | Ki [18]: 1.26 µM (active)
